Experimental data: patent US9580437B2, “Triazolopyrimidine compounds and uses thereof” (Novartis AG, priority 2014, dated 2017)

Key:
EED (1-441)-His protein = EED (1-441)-His protein (Homo sapiens (Human), UniProt O75530); assay: EED-H3K27Me3 peptide competition binding assay by AlphaScreen; settings: read-out: (a) IC50 EED Alphascreen binding Qualified
Description: EED-H3K27Me3 peptide competition binding assay by AlphaScreen (α-screen)

[1] = biological target: wild type PRC2 (wtPRC2) complex (Homo sapiens (Human), UniProt O75530); assay: EED LC-MS assay; assay type: biochemical; settings: read-out: (b) IC50 EED LC-MS Qualified
Procedure: A 6 μL solution of 3 μM of the peptide substrate H3K27Me0 (histone H3[21-44]-biotin) in reaction buffer was added to initiate each reaction. […] ELISA (H3K27 Methylation) Assay

wild type PRC2 (wtPRC2) complex, sequence (O75530 whole entry): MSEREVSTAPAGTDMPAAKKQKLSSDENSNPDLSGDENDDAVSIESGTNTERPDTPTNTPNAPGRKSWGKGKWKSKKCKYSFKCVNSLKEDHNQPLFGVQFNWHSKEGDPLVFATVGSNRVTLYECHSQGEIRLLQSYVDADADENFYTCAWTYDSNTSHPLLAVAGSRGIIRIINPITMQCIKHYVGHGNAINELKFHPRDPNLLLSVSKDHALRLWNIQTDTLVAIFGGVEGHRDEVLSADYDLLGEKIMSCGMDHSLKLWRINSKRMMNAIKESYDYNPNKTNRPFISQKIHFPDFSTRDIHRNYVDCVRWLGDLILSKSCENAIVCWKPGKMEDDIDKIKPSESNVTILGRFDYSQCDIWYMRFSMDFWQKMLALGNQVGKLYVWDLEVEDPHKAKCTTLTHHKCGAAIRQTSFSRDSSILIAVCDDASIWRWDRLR
wild type PRC2 (wtPRC2) complex, sequence (Q15910 whole entry partner): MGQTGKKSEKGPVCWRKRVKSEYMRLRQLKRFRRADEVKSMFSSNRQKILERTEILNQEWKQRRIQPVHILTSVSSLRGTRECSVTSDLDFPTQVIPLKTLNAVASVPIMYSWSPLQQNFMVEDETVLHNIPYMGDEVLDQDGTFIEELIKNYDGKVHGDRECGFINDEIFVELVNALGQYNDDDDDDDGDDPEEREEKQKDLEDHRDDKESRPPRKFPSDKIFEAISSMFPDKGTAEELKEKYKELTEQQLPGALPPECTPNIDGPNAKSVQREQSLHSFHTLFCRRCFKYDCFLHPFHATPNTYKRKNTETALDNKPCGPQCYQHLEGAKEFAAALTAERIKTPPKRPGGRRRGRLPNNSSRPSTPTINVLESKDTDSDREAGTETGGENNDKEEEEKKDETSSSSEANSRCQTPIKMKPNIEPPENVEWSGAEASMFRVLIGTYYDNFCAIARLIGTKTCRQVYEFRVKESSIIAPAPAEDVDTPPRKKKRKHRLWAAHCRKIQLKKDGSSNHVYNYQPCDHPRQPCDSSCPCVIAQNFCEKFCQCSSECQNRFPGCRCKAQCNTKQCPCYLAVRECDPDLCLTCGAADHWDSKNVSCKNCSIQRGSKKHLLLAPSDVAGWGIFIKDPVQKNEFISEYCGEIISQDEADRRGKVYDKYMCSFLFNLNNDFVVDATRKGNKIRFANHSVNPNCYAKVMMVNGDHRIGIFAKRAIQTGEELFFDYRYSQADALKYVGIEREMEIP
wild type PRC2 (wtPRC2) complex, sequence (Q15022 whole entry partner): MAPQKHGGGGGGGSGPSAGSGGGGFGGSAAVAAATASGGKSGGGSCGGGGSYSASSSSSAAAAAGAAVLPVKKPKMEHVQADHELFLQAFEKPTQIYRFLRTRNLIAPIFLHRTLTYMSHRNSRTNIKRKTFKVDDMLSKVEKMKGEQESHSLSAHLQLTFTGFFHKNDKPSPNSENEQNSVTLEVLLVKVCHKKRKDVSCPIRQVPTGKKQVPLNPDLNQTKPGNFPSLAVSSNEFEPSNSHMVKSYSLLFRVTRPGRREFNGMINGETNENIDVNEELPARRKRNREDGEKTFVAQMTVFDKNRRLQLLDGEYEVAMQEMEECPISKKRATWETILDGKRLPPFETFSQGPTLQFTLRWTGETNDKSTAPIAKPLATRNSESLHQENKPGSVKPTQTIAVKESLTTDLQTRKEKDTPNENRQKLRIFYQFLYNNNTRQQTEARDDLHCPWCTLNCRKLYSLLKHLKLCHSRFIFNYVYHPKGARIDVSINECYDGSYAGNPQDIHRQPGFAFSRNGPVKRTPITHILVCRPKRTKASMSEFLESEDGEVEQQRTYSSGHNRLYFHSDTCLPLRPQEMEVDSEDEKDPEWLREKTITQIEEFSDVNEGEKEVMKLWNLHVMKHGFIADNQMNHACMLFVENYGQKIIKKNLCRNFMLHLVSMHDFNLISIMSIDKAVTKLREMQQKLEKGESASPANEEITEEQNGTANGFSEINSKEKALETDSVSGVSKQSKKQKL
EED (1-441)-His protein, sequence (O75530 whole entry): as the sequence (O75530 whole entry) above

| SMILES | IC50 (EED (1-441)-His protein) [nM] | IC50 [1] [nM] |
| --- | --- | --- |
| O=C1CNCCN1c1ccc(-c2cnc(NCc3cccc4c3CCO4)n3cnnc23)cn1 [Example 125, 1-(5-(5-(((2,3-dihydrobenzofuran-4-yl)methyl)amino)-[1,2,4]triazolo[4,3-c]pyrimidin-8-yl)pyridin-2-yl)piperazin-2-one] | 8.5 | 23.4 |
| OC1CN(c2ccc(-c3cnc(NCc4cccc5c4CCO5)n4cnnc34)cn2)C1 [Example 126, 1-(5-(5-(((2,3-dihydrobenzofuran-4-yl)methyl)amino)-[1,2,4]triazolo[4,3-c]pyrimidin-8-yl)pyridin-2-yl)azetidin-3-ol] | 12.9 | 17.2 |
| Cc1cc(S(C)(=O)=O)ncc1-c1cnc(NCc2c(F)ccc3c2CCO3)n2cnnc12 [Example 127, N-((5-fluoro-2,3-dihydrobenzofuran-4-yl)methyl)-8-(4-methyl-6-(methylsulfonyl)pyridin-3-yl)-[1,2,4]triazolo[4,3-c]pyrimidin-5-amine] | 2.6 | 8.8 |
| Cc1cc(S(C)(=O)=O)ccc1-c1cnc(NCc2c(F)ccc3c2CCO3)n2cnnc12 [Example 128, N-((5-fluoro-2,3-dihydrobenzofuran-4-yl)methyl)-8-(2-methyl-4-(methylsulfonyl)phenyl)-[1,2,4]triazolo[4,3-c]pyrimidin-5-amine] | 8.6 | 16.5 |
| O=C(c1ccc(-c2cnc(NCc3c(F)ccc4c3CCO4)n3cnnc23)cn1)N1CCCC1 [Example 129, (5-(5-(((5-fluoro-2,3-dihydrobenzofuran-4-yl)methyl)amino)-[1,2,4]triazolo[4,3-c]pyrimidin-8-yl)pyridin-2-yl)(pyrrolidin-1-yl)methanone] | 3.9 | 8.4 |
| Cc1cc(C(=O)N2CCCC2)ncc1-c1cnc(NCc2c(F)ccc3c2CCO3)n2cnnc12 [Example 130, (5-(5-(((5-fluoro-2,3-dihydrobenzofuran-4-yl)methyl)amino)-[1,2,4]triazolo[4,3-c]pyrimidin-8-yl)-4-methylpyridin-2-yl)(pyrrolidin-1-yl)methanone] | 5 | 13.7 |
| Cc1cc(C(=O)N(C)C)ncc1-c1cnc(NCc2c(F)ccc3c2CCO3)n2cnnc12 [Example 131, 5-(5-(((5-fluoro-2,3-dihydrobenzofuran-4-yl)methyl)amino)-[1,2,4]triazolo[4,3-c]pyrimidin-8-yl)-N,N,4-trimethylpicolinamide] | 4 | 10.6 |
| Cc1nn(C)c(C)c1-c1cnc(NCc2c(F)ccc3c2CCO3)n2cnnc12 [Example 132, N-((5-fluoro-2,3-dihydrobenzofuran-4-yl)methyl)-8-(1,3,5-trimethyl-1H-pyrazol-4-yl)-[1,2,4]triazolo[4,3-c]pyrimidin-5-amine] | 6.2 | 10.2 |
| O=C1CN(Cc2ccc(-c3cnc(NCc4cccc5c4CCO5)n4cnnc34)cn2)CCN1 [Example 133, 4-((5-(5-(((2,3-dihydrobenzofuran-4-yl)methyl)amino)-[1,2,4]triazolo[4,3-c]pyrimidin-8-yl)pyridin-2-yl)methyl)piperazin-2-one] | 8.7 | 22.3 |
| O=CN1CCN(c2ccc(-c3cnc(NCc4cccc5c4CCO5)n4cnnc34)cn2)CC1 [Example 134, 4-(5-(5-(((2,3-dihydrobenzofuran-4-yl)methyl)amino)-[1,2,4]triazolo[4,3-c]pyrimidin-8-yl)pyridin-2-yl)piperazine-1-carbaldehyde] | 17.3 | 30.5 |
| CN(C)C(=O)CCc1ccc(-c2cnc(NCc3cccc4c3CCO4)n3cnnc23)cn1 [Example 135, 3-(5-(5-(((2,3-dihydrobenzofuran-4-yl)methyl)amino)-[1,2,4]triazolo[4,3-c]pyrimidin-8-yl)pyridin-2-yl)-N,N-dimethylpropanamide] | 5.7 | 11.2 |
| Fc1ccc2c(c1CNc1ncc(-c3cnccc3C(F)(F)F)c3nncn13)CCO2 [Example 136, N-((5-fluoro-2,3-dihydrobenzofuran-4-yl)methyl)-8-(4-(trifluoromethyl)pyridin-3-yl)-[1,2,4]triazolo[4,3-c]pyrimidin-5-amine] | 15.9 | 41.8 |
| COCc1cc(-c2cnc(NCc3cccc4c3CCO4)n3cnnc23)cnc1C [Example 137, N-((2,3-dihydrobenzofuran-4-yl)methyl)-8-(5-(methoxymethyl)-6-methylpyridin-3-yl)-[1,2,4]triazolo[4,3-c]pyrimidin-5-amine] | 22 | 29.6 |
| Cc1nc(S(C)(=O)=O)ccc1-c1cnc(NCc2c(F)ccc3c2CCO3)n2cnnc12 [Example 139, N-((5-fluoro-2,3-dihydrobenzofuran-4-yl)methyl)-8-(2-methyl-6-(methylsulfonyl)pyridin-3-yl)-[1,2,4]triazolo[4,3-c]pyrimidin-5-amine] | 1.7 | 6 |
| CC(C)n1nccc1-c1cnc(NCc2c(F)ccc3c2CCO3)n2cnnc12 [Example 144, N-((5-fluoro-2,3-dihydrobenzofuran-4-yl)methyl)-8-(1-isopropyl-1H-pyrazol-5-yl)-[1,2,4]triazolo[4,3-c]pyrimidin-5-amine] | 6.3 | 17.8 |

More lines, now with the values ahead:

| IC50 (EED (1-441)-His protein) [nM] | IC50 [1] [nM] | SMILES |
| --- | --- | --- |
| 10 | 15.4 | Fc1ccc2c(c1CNc1ncc(-c3cnccc3Cl)c3nncn13)CCO2 [Example 124, 8-(4-chloropyridin-3-yl)-N-((5-fluoro-2,3-dihydrobenzofuran-4-yl)methyl)-[1,2,4]triazolo[4,3-c]pyrimidin-5-amine] |
| 1.9 | 8.4 | COc1cc(Cl)c(-c2cnc(NCc3c(F)ccc4c3CCO4)n3cnnc23)cn1 [Example 138, 8-(4-chloro-6-methoxypyridin-3-yl)-N-((5-fluoro-2,3-dihydrobenzofuran-4-yl)methyl)-[1,2,4]triazolo[4,3-c]pyrimidin-5-amine] |
| 12.7 | 55.1 | CN(C)C(=O)c1ccc(-c2cnc(NCc3c(F)ccc4c3CCO4)n3cnnc23)cn1 [Example 140, 5-(5-(((5-fluoro-2,3-dihydrobenzofuran-4-yl)methyl)amino)-[1,2,4]triazolo[4,3-c]pyrimidin-8-yl)-N,N-dimethylpicolinamide] |
| 17.1 | 42 | COc1ncccc1-c1cnc(NCc2c(F)ccc3c2CCO3)n2cnnc12 [Example 141, N-((5-fluoro-2,3-dihydrobenzofuran-4-yl)methyl)-8-(2-methoxypyridin-3-yl)-[1,2,4]triazolo[4,3-c]pyrimidin-5-amine] |
| 2.4 | 5.1 | COc1ccc(-c2cnc(NCc3c(F)ccc4c3CCO4)n3cnnc23)cn1 [Example 142, N-((5-fluoro-2,3-dihydrobenzofuran-4-yl)methyl)-8-(6-methoxypyridin-3-yl)-[1,2,4]triazolo[4,3-c]pyrimidin-5-amine] |
| 18.1 | 31.5 | CCn1nccc1-c1cnc(NCc2c(F)ccc3c2CCO3)n2cnnc12 [Example 143, 8-(1-ethyl-1H-pyrazol-5-yl)-N-((5-fluoro-2,3-dihydrobenzofuran-4-yl)methyl)-[1,2,4]triazolo[4,3-c]pyrimidin-5-amine] |
| 2.4 | 11.8 | COc1cc(-c2cnc(NCc3c(F)ccc4c3CCO4)n3cnnc23)ccn1 [Example 145, N-((5-fluoro-2,3-dihydrobenzofuran-4-yl)methyl)-8-(2-methoxypyridin-4-yl)-[1,2,4]triazolo[4,3-c]pyrimidin-5-amine] |
